Measured values from patent US7238374B2, “Process and substances for the release of a growth-regulating factor from endothelial cells” (priority 1998, dated 2007).

What was measured:
[1] = Partition between octanol and aqueous phosphate buffer pH 7; assay type: physicochemical
Experimental: Cells in a culture medium can be viewed as a two-phase system consisting of water and lipids. The distribution of the alkaloids in cell cultures and in mixtures of octanol and water was studied. […] The alkaloids were partitioned between equal volumes of octanol and aqueous phosphate buffer pH 7 (0.01 M) at 20° C. The concentrations c of the alkaloids were determined by HPLC analysis and the coefficients of distribution [formula] were calculated.

[2] = Equilibria of isomers in an octanol-water two-phase system; assay type: physicochemical; conditions: octanol-water system (1:1) with mitraphylline and isomitraphylline, approximately pH 5
From the text: As expected the equilibrium of isomers in a two-phase system (1aq ? 1org, 2aq ? 2org, FIG. 3) depends not only on the pH value of the aqueous phase but also on the amount and nature of the organic phase, For an example, the equilibria of mitraphylline and isomitraphylline in an octanol-water system (1:1) at pH values from 3 to 7 are shown (FIG. 4). It can be seen that in the pH range from 4 to 7 isomitraphylline is predominant in the octanol phase, with a maximum of 94 mol-% at approximately pH 5. However, below pH 3 mitraphylline begins to prevail in the aqueous phase. At no pH value is isomitraphylline produced in the aqueous phase to a reasonable extent. Therefore, the distribution of the isomers in a 2-phase system is clearly different compared to the situation in a purely aqueous solution.

[3] = stimulant IMM-2418 (1.1 μM)
Experimental: A RPMI-1640 culture medium (Sigma-Aldrich Company, St. Louis, USA) completed with 10% by volume fetal calf serum, 2 mM glutamin, 50 units/ml penicillin G, and 50 μg/ml streptomycin was used.

[4] = octanol / aqueous phosphate buffer pH 7 (0.01 M), equal volumes, 20° C.

Structure (SMILES)	log KO/W (common logarithm of the partition coefficient) [1, 4]	log KO/W (common logarithm of the partition coefficient) ([1]; pH 7)	also measured
COC(=O)C1=CO[C@@H](C)[C@@H]2CN3CC[C@]4(C(=O)Nc5ccccc54)[C@H]3C[C@H]12 [Uncarine F]	3.1		
COC(=O)C1=CO[C@@H](C)[C@@H]2CN3CC[C@]4(C(=O)Nc5ccccc54)[C@@H]3C[C@H]12 [Pteropodine]		2.9	
COC(=O)C1=CO[C@@H](C)[C@H]2CN3CC[C@@]4(C(=O)Nc5ccccc54)[C@@H]3C[C@H]12 [Isomitraphylline]		2.8	equilibrium concentration in the octanol phase, maximum [2]: 94 mol-%
CC[C@H]1CN2CC[C@]3(C(=O)Nc4ccccc43)[C@@H]2C[C@@H]1/C(=C\OC)C(=O)OC [Rhynchophylline]	2.7		alkaloid concentration in RPMI-1640 nutrient medium, 7 Days [3]: 0.13 mg/L; alkaloid concentration in RPMI-1640 nutrient medium, Start [3]: 0.15 mg/L
COC(=O)C1=CO[C@@H](C)[C@H]2CN3CC[C@]4(C(=O)Nc5ccccc54)[C@@H]3C[C@H]12 [Mitraphylline]		2.5	
COC(=O)C1=CO[C@@H](C)[C@@H]2CN3CC[C@@]4(C(=O)Nc5ccccc54)[C@@H]3C[C@H]12 [Isopteropodine]		3.2	
COC(=O)C1=CO[C@@H](C)[C@@H]2CN3CC[C@@]4(C(=O)Nc5ccccc54)[C@H]3C[C@H]12 [Speciophylline]		1.4	
CC[C@H]1CN2CC[C@@]3(C(=O)Nc4ccccc43)[C@@H]2C[C@@H]1/C(=C\OC)C(=O)OC [Isorhynchophylline]	3.1		alkaloid concentration in RPMI-1640 nutrient medium, 7 Days [3]: 0.27 mg/L; alkaloid concentration in RPMI-1640 nutrient medium, Start [3]: 0.27 mg/L
